Test results published in US20250295577A1, “EXTRACT OF YOUNG FLOWERS AND COSMETIC USES” (SOCIETE INDUSTRIELLE LIMOUSINE D'APPLICATION BIOLOGIQUE, priority 2021, published 2025).

Test system: human fibroblasts derived from older donors
Assay: Cell migration of human fibroblasts (wound, crystal violet, occupied surface)
Format: cell-based
Settings: for Cell migration: vs older control (Table 5)
Description: Cell migration is the ability of certain cells to move. In vitro, it is evaluated by the number of cells covering a surface that is initially empty (Kim et al., 2015; Lampugnani, 1999). The migratory capacity of the cells is reduced with age (Boulter et al., 2013).
Their action was studied on a human fibroblast culture derived from older donors.
On D0, the human fibroblasts are seeded and incubated at 37° C.
After several days of culture, the insert is removed from the culture chamber, creating a wound. The cells are treated with an active ingredient according to the invention or the red flower extract or a solution of N-(1-deoxy-1-fructosyl)-proline then incubated at 37° C.
After several days of culture, the cells are stained with a crystal violet solution at 0.5% (M/V). The viewing is done with an AxioCam MRc camera with microscope coupled to an image analysis system.
The surface ratio occupied by the cells is calculated automatically using software.

O=C(CN1CCCC1C(=O)O)C(O)C(O)C(O)CO (stereo not shown) [N-(1-deoxy-1-fructosyl)-proline]
Occupied surface ratio (1.5 ppm (Table 5)): 0.266 UA
Cell migration (1.5 ppm): 0%
Occupied surface ratio (5 ppm (Table 5)): 0.328 UA
Cell migration (5 ppm): +19%
